{"source": "patent US7750024B2", "about": "“Remedy for glioblastoma” (Astellas Pharma Inc., priority 2002, dated 2010)", "key": {"[1]": {"test_system": "Human glioblastoma cell (CGNH-89 cell line)", "experiment": "Proliferation of human glioblastoma cells by Ki67 antibody staining in vitro", "format": "cell-based", "method": "(§1) Human glioblastoma cell (CGNH-89 cell line) was used at this experiment. These cells were randomly divided in the following three groups: a group of a glutamate-free medium (no glutamate group; control group); a group of the glutamate-free medium added 100 μM glutamate (100 μM glutamate group); a group of the glutamate-free medium added 100 μM glutamate and 20 μM NBQX (100 μM glutamate+20 μM NBQX group). The cells were incubated for 48 hours. The CGNH-89 cell was cultured in DMEM (Dulbecco's modified Eagle's medium) supplemented with 10% dialyzed fetal calf serum.\n(§2) CGNH-89 cell line was established through resection from the tumor at the right front lobe of a person according to the Explant method by Nicolas et al. (Science 196, 60-63, 1977). […] Additionally, the mRNAs of GluR1 through GluR4 were analyzed with antibodies against the AMPA receptor subunits GluR1, GluR2, GluR3 and GluR4 and RT-PCR. Consequently, the cell line expresses GluR1 and GluR4 but not expresses GluR2 and GluR3. As described above, the cell line has the same profile as that of the cell of primary glioblastoma de novo.\n(§3) The anti-tumor action was evaluated by calculating the apoptosis score by TUNEL method (terminal deoxynucleotide transferase (TdT)-mediated dUTP nick end labeling) 48 hours after culturing. Additionally, proliferation of the human glioblastoma cell was evaluated, using the antibody Ki67.\n(§4) The results are shown as mean±standard deviation and statistically analyzed by the Student's t-test. Significance level was set at p<0.05."}, "[2]": {"test_system": "Human glioblastoma cell (CGNH-89 cell line)", "experiment": "Apoptosis by TUNEL method in human glioblastoma cells in vitro", "format": "cell-based", "method": "as §1, §2, §3, §4"}, "C6 and RG2 glioma": {"test_system": "C6 and RG2 glioma", "conditions": "C6 and RG2 glioma transplanted rats; cited from earlier work"}, "[3]": {"test_system": "CGNH-89 human glioblastoma", "experiment": "Growth inhibition on glioblastoma in vivo, CGNH-89 transplanted subcutaneously in nude mice", "conditions": "100 mg/kg intraperitoneally for 14 days vs PBS; days 11 and 13 after onset and days 2, 4, 6, 8 after completion of administration", "method": "Nude mice (5-6 weeks old) were used at this experiment. 10^7 cells of CGNH-89 used in Example 1 were transplanted subcutaneously in the nude mice. On the next day of transplantation, the mice were divided randomly in two groups; a group (n=12) to be administered with 100 mg/kg compound A and a group (n=12) to be administered with PBS (phosphate buffered saline). The drug was administered repeatedly intraperitoneally for 14 days starting on the next day of transplantation. Up to day 8 after the completion of the administration, the mice were observed. The tumor size was measured every two days with a vernier micrometer, to calculate the volume according to the formula (length×width^2)×½.\nThe results are shown in mean±standard deviation and statistically analyzed by the Student's t-test. The significance level was set at p<0.05."}, "[4]": {"conditions": "20 μM NBQX + 100 μM glutamate, 48 hours incubation, mean±SD"}, "[5]": {"conditions": "20 μM NBQX with 100 μM glutamate, 48 hours"}, "[6]": {"conditions": "100 μM glutamate alone added to glutamate-free medium, 48 hours"}}, "note": "“And” between values parts separate entries of the source, which are not always exact repeats. Equal entries are not always repeated."}
{"smiles": "NS(=O)(=O)c1cccc2c1c([N+](=O)[O-])cc1nc(O)c(O)nc12", "note": "[NBQX, 2,3-dihydroxy-6-nitro-7-sulfamoyl-benzo(F)-quinoxaline]", "values": [{"measurement": "staining index with Ki-67 (proliferation inhibiting activity)", "setting": "[1]; [4]", "value": "2.0 ± 1.0", "unit": "%"}, {"measurement": "effect on glutamate-induced proliferative activity", "setting": "[1]; [5]", "value": "suppressed the glutamate-induced proliferative activity"}, {"measurement": "TUNEL-SCORE (ratio of apoptosis)", "setting": "[2]; [4]", "value": "13.0 ± 2.0", "unit": "%"}, {"measurement": "effect on glutamate-induced suppression of apoptosis", "setting": "[2]; [5]", "value": "induced the apoptosis"}]}
{"smiles": "CC12CC3CC(C)(C1)CC(N)(C3)C2", "note": "[memantin]", "values": [{"measurement": "proliferation inhibition", "setting": "C6 and RG2 glioma", "value": "exert a proliferation inhibition"}]}
{"smiles": "O.O=C(O)Cn1c(=O)c(=O)[nH]c2cc([N+](=O)[O-])c(-n3ccnc3)cc21", "note": "[Compound A, [7-(1H-imidazol-1-yl)-6-nitro-2,3-dioxo-3,4-dihydroquinoxalin-1 (2H)-yl]acetic acid•monohydrate]", "values": [{"measurement": "tumor growth inhibition (tumor volume)", "setting": "[3]", "value": "significant tumor growth inhibition"}]}
{"smiles": "N[C@@H](CCC(=O)O)C(=O)O", "note": "[glutamate]", "values": [{"measurement": "staining index with Ki-67 (proliferation inhibiting activity)", "setting": "[1]; [6]", "value": "18.5% and 18.5 ± 3.0%"}, {"measurement": "TUNEL-SCORE (ratio of apoptosis)", "setting": "[2]; [6]", "value": "3% and 3.0 ± 2.0%"}]}
{"smiles": "C[C@]12N[C@H](Cc3ccccc31)c1ccccc12", "note": "[MK-801]", "values": [{"measurement": "proliferation inhibition", "setting": "C6 and RG2 glioma", "value": "exert a proliferation inhibition"}]}
